# In the supplement of paper PMC13380429:
# Counter-ions that a name gives are not always drawn.
# How the values were obtained:
# Conditions in all cases: 72 h
# Caco-2 [1] = test: cell viability relative to DMSO; higher = less toxic
# Calu-3 [2] = test: as above
# HepG2 [3] = test: as above
# U2OS [4] = test: as above
# Vero E6 [5] = test: as above
# Caco-2 [6] = test: relative viability EC50 (midpoint between 100% and the lowest measured viability); higher = less toxic
# Calu-3 [7] = test: as above
# HepG2 [8] = test: as above
# U2OS [9] = test: as above
# Vero E6 [10] = test: as above
# Caco-2 [11] = test: drug sensitivity score (DSS) for viability; higher = more toxic; extreme values may be limits of the assay
# Calu-3 [12] = test: as above
# HepG2 [13] = test: as above
# U2OS [14] = test: as above
# Vero E6 [15] = test: as above
Structure (SMILES),cell viability (Caco-2 [1]; 1 nM) [%],cell viability (Caco-2 [1]; 10 nM) [%],cell viability (Caco-2 [1]; 100 nM) [%],cell viability (Caco-2 [1]; 1000 nM) [%],cell viability (Caco-2 [1]; 10000 nM) [%],cell viability (Calu-3 [2]; 1 nM) [%],cell viability (Calu-3 [2]; 10 nM) [%],cell viability (Calu-3 [2]; 100 nM) [%],cell viability (Calu-3 [2]; 1000 nM) [%],cell viability (Calu-3 [2]; 10000 nM) [%],cell viability (HepG2 [3]; 1 nM) [%],cell viability (HepG2 [3]; 10 nM) [%],cell viability (HepG2 [3]; 100 nM) [%],cell viability (HepG2 [3]; 1000 nM) [%],cell viability (HepG2 [3]; 10000 nM) [%],cell viability (U2OS [4]; 1 nM) [%],cell viability (U2OS [4]; 10 nM) [%],cell viability (U2OS [4]; 100 nM) [%],cell viability (U2OS [4]; 1000 nM) [%],cell viability (U2OS [4]; 10000 nM) [%],cell viability (Vero E6 [5]; 1 nM) [%],cell viability (Vero E6 [5]; 10 nM) [%],cell viability (Vero E6 [5]; 100 nM) [%],cell viability (Vero E6 [5]; 1000 nM) [%],cell viability (Vero E6 [5]; 10000 nM) [%],relative viability EC50 (Caco-2 [6]) [µM],relative viability EC50 (Calu-3 [7]) [µM],relative viability EC50 (HepG2 [8]) [µM],relative viability EC50 (U2OS [9]) [µM],relative viability EC50 (Vero E6 [10]) [µM],drug sensitivity score (Caco-2 [11]),drug sensitivity score (Calu-3 [12]),drug sensitivity score (HepG2 [13]),drug sensitivity score (U2OS [14]),drug sensitivity score (Vero E6 [15])
O=C(O)c1ccc(N2C(=O)/C(=C/c3ccc(-c4ccc([N+](=O)[O-])cc4)o3)C=C2c2ccccc2)cc1 [4E1RCat],97.3,97.1,98.2,96.4,87.5,93.1,105,95.2,87.3,100,104,108,91.4,102,88.7,98.4,98.1,102,94.7,92.5,98.1,100,99,98.7,99.3,> 10,> 10,> 10,> 10,> 10,0.2,0,0,0,0
c1ccc(CNc2ncnc3[nH]cnc23)cc1 [6-benzylaminopurine],97,107,90.8,109,112,99.9,98.4,120,97.3,112,98.3,106,98.9,109,98.4,106,97.9,103,99.5,100,97.1,104,95.6,95,104,> 10,> 10,> 10,> 10,> 10,0,0,0,0,0
Cc1c(F)cc(C(=O)NC2CC2)cc1-c1c(F)cn2c(C(C)(C)C)nnc2c1F [AL-8697],95.4,93.5,97.7,93.4,95.3,95.7,99.2,97,88.4,102,96.5,105,90.9,105,94.7,98.9,95.9,94.1,93.1,93.7,95.8,100,93.9,86.3,87,> 10,> 10,> 10,> 10,> 10,0,0,0,0,1.4
O=C(NC1CCNCC1)c1n[nH]cc1NC(=O)c1c(Cl)cccc1Cl [AT-7519],91.4,93.2,94.2,104,33.5,100,99,95.9,83.9,37.5,111,99.4,108,22.5,9.6,103,97.6,100,100,7,99.6,102,102,99.6,96.6,3.46,1.53,0.509,3.19,> 10,3.3,5.9,14,5.2,0
CN1[C@@H]2CC[C@H]1C[C@@H](OC(=O)C(CO)c1ccccc1)C2 (stereo not given in full) [ATROPINE SULFATE],93.2,95,67.1,99.6,98.5,96.2,102,88.4,104,96.1,102,91.5,105,84.3,98.2,96.5,102,102,102,103,112,99.7,109,99.4,106,> 10,> 10,> 10,> 10,> 10,0,0,0,0,0
O=C(c1ccc(Cl)o1)N1CC2CNCC2C1 (stereo not given) [AZD1446],103,97.8,97,103,103,112,89.8,94.4,89.4,107,99.3,93.1,90.2,99.1,88,99.6,98.6,96.1,97.7,97.8,96.4,98.2,98.7,99.6,91.3,> 10,> 10,> 10,> 10,> 10,0,0,0,0,0
C[C@]12CC[C@H](O)CC1=CC[C@@H]1[C@@H]2CC[C@]2(C)C(c3cccnc3)=CC[C@@H]12 [Abiraterone (CB-7598)],87.1,92.3,100,101,98.1,96,107,100,98.3,100,97.7,92.7,103,95.1,103,95.3,101,95.7,103,104,99.9,95.2,93.9,96.4,112,> 10,> 10,> 10,> 10,> 10,0,0,0,0,0
